According to patent US3985766A, “Bis-imidazolyl-bisphenylmethane and salts thereof” (Bayer Aktiengesellschaft, priority 1968, dated 1976):

Tested on: Trichophyton mentagrophytes
Experiment: effectiveness in vitro against human-pathogenic fungi (fungistatic)
Format: cell-based
Conditions: Milieu d'epreuve according to Sabouraud, 28° C
Procedure: I. effectiveness in vitro against human-pathogenic fungi
1. Trichophyton mentagrophytes:
The test medium was Milieu d'epreuve according to Sabouraud, incubation temperature: 28° C.

Q: For c1ccc(C(c2ccccc2)(n2ccnc2)n2ccnc2)cc1 [compound a), bis-imidazolyl-bis-phenylmethane], which MIC is on record?
A: The MIC was less than 4 µg/mL.

Q: Which MIC does the source give for Clc1ccc(C(c2ccccc2)(n2ccnc2)n2ccnc2)cc1 [compound b), bis-imidazolyl-4-chlorophenyl-phenylmethane] here?
A: Its MIC is less than 4 µg/mL.

Q: How did the MIC turn out when Fc1ccc(C(c2ccccc2)(n2ccnc2)n2ccnc2)cc1 [compound c), bis-imidazolyl-4-fluorophenyl-phenylmethane] was run?
A: Its MIC is less than 4 µg/mL.

Q: With Fc1ccc(C(c2ccccc2F)(n2ccnc2)n2ccnc2)cc1 [compound d), bis-imidazolyl-2,4'-difluoro-diphenylmethane] as the molecule, how does the MIC read?
A: Its MIC is less than 4 µg/mL.

Q: For Clc1ccccc1C(c1ccccc1)(n1ccnc1)n1ccnc1 [compound e), bis-imidazolyl-2-chlorophenyl-phenylmethane], which MIC is on record?
A: Its MIC is less than 4 µg/mL.

Q: Which MIC does the source give for Clc1cccc(C(c2ccccc2)(n2ccnc2)n2ccnc2)c1 [compound f), bis-imidazolyl-3-chlorophenyl-phenylmethane] here?
A: Its MIC is less than 4 µg/mL.

Q: With N#Cc1ccc(C(c2ccccc2)(n2ccnc2)n2ccnc2)cc1 [compound g), bis-imidazolyl-4-cyanophenyl-phenylmethane] as the molecule, how does the MIC read?
A: Its MIC is less than 40 µg/mL.
